Laboratory results as given in patent publication US20210128596A1, “COMPOSITIONS AND METHODS FOR TREATING SEPTIC CARDIOMYOPATHY” (UNIVERSITY OF PENNSYLVANIA, priority 2017, published 2021).
“Also recorded” adds a separate entry of the source.

Columns and labels:
[1] = test system: adenylyl cyclase V/VI; test: Adenylyl cyclase V/VI expression (western blot) in CLP mice; assay type: in vivo, mouse; settings: SDG following CLP
Experimental: Mice were either sham treated (n=3) or subjected to cecal ligation puncture (CLP, n=6). SDG was administered to three mice following CLP.

[2] = test system: protein kinase A (PKA); test: Protein kinase A (PKA) activity in AC16 cells; assay type: cell-based, human
Source text: AC16 cells were either left untreated or treated with SDG, Liposaccharide (LPS), or both.
Cell culture—A human ventricular cardiomyocyte-derived cell line, designated AC-16, was used for some in vitro experiments. Cells were maintained in Dulbecco's modified Eagle's medium-nutrient mixture F-12 (DMEM-F-12; Invitrogen, Carlsbad, Calif.).

[3] = test system: adult cardiomyocytes isolated from septic mice; test: Seahorse oxygen consumption rate in cardiomyocytes isolated from septic mice; assay type: in vivo, mouse
Experimental: Mice were either sham treated or subjected to cecal ligation puncture followed by SDG treatment. The oxygen consumption rate (OCR) was measured in a seahorse assay.
Adult mouse cardiomyocytes isolation—Adult mouse cardiomyocytes (ACMs) were isolated from ventricles of C57BL/6 mice 12 hours post-sham surgery, CLP surgery or combined performance of CLP and treatment with LGM2605 at 6 hours post-surgery. Hearts from heparinized mice (90 USP; ip) were cannulated through the aorta. Hearts were perfused with perfusion buffer (120.4 mMNaCl, 14.7 mM KCL, 0.6 mM NaH2PO4, 0.6 mM KH2PO4, 1.2 mM MgSO4, 10 mM Hepes, 4.6 mM NaHCO3, 30 mMtaurine, 10 mM BDM, 5.5 mM glucose; pH 7.4) for 3 min followed by digestion with perfusion buffer containing 19250 units Collagenese type II (Worthington), 5-6 mg trypsin and 0.02 mM CaCl2 for 7 min. Ventricles were gently teared into small pieces, perfusion buffer containing 5 mg/ml BSA and 0.125 mM CaCl2 was added and filtered with 100 μm nylon. The filtrate was pelleted by gravity for 5 min, centrifuged for 30 sec at 700 rpm and the pellet resuspended in perfusion buffer containing 5 mg/ml BSA and 0.225 mM CaCl2. The cells were pelleted by gravity for 10 min, centrifuged for 30 sec at 700 rpm and the pellet resuspended in perfusion buffer containing 5 mg/ml BSA and 0.525 mM CaCl2.
Seahorse analysis—Isolated primary ACMs were counted with Hematocytometer. Dead cells were detected with Trypan Blue Dye staining. Cells were platted (3000 cells per well) in XF96 Seahorse® plates pre-coated with laminin with 20 μg/ml laminin (Invitrogen, 23017). In order to assess oxygen consumption rates (OCR) for fatty acid oxidation (FAO) recordings, cells were incubated in substrate limited medium (DMEM containing 10 mM Glucose, 1.025 mM CaCl2, 0.5 mM carnitine, pH=7.4) and assayed with fatty acid oxidation medium as per manufacturer's protocol. Before starting the assay, 1 mM palmitate conjugated with BSA was added in each well. Drugs used for maximal response during fatty acid oxidation were: Oligomycin (3 μM) (Sigma, 04875) which blocks complex V, FCCP (2 μM) (Sigma, C2920) that leads to the collapse of the proton gradient, and Rotenone/Antimycin A (0.5 μM) (Sigma, A8674)/(Sigma, R8875) where rotenone blocks complex I and antimycin A blocks complex III. The pre-hydrated with XF assay calibrant, XF cartridges were filled with the drugs and the cartridge was calibrated for 30 minutes in Seahorse Analyzer. All experiments were performed at 37° C. Calculations were made as described in the Seahorse manual and XF Seahorse Mito Stress Test kit user guide. Briefly, basal respiration was calculated with subtraction of non-mitochondrial respiration rate from the last measurement prior to first injection. Maximal respiration was calculated by subtraction of the non-mitochondrial respiration measurement from maximum measurement after FCCP injection. ATP synthesis-related OCR was obtained indirectly by measuring ATP-linked respiration in the presence of complex V inhibitor (Oligomycin). The decrease of oxygen consumption rate representing the portion of basal respiration that was used to drive ATP synthesis was calculated with subtraction of the minimum measurement after Oligomycin injection from the last measurement prior to Oligomycin injection. Spare Respiratory Capacity was equal to (maximum respiration)−(basal respiration).

[4] = test system: IL-1α, IL-1β, IL-6, IL-10 and TNFα; test: Plasma levels of cytokines (Milliplex); assay type: in vivo, mouse; settings: plasma 12 hours post-surgery
Source text: Inflammatory cytokines measurement—Circulating levels of IL-1α, IL-1β, IL-6, IL-10 and TNFα were quantified simultaneously from frozen plasma samples using the Milliplex MAP Mouse Cytokine kit (MCYTOMAG-70K-05) following the kit specifications. Samples were read using the Luminex MAGPIX multiplexing unit.

[5] = test system: permeabilized adult cardiomyocytes; test: Calcium uptake assay in permeabilized adult cardiomyocytes; assay type: in vivo, mouse; settings: cardiomyocytes isolated 12 h after CLP, 6 h after LGM2605
Experimental: Calcium uptake assay in permeabilized adult cardiomyocytes Cardiomyocytes were isolated from mice 12 hours after CLP or sham surgery and 6 hours after LGM2605 or saline injection. Calcium uptake was performed as previously described^22 and detailed below. Before permeabilization, cardiomyocytes were washed in a Ca free buffer (120 mM NaCl, 5 mM KCL 1 mM KH2PO4, 0.2 mM MgCl2, 0.1 mM EGTA and 20 mM HEPES-NaOH, at pH 7.4) and stored on ice for at least 10 min. Cardiomyocytes were pelleted by centrifugation and transferred to an intracellular-like medium (permeabilization buffer: 120 mM KCl, 10 mM. NaCl, 1 mM KH2PO4, 20 mM, 4 HEPES-Tris, at pH 7.2, protease inhibitors (EDTA-free complete tablets, Roche Applied Science), 2 μM thapsigargin and digitonin (40 μg ml^−1)). The cell suspension supplemented with succinate (2 mM) was placed in a fluorimeter and permeabilized by gentle stirring. Fura2FF (0.5 μM) was added at 0 s, and JC-1 (800 nM) at 20 s. Fluorescence signal was monitored in a temperature-controlled (37° C.) multiwavelength-excitation dual-wavelength-emission spectrofluorometer (Delta RAM, Photon Technology International) using 490-nm excitation/535-nm emission for the JC-1 monomer. 570-nm excitation/595-nm emission for the J-aggregate of JC-1 and 340-nm/380-nm for Fura2FF. At 400 s, a single 10 μM Ca^2+ pulse was added, and changes in cytosolic [Ca^2] was monitored. […]

[6] = test system: AC16 cells; test: Mitochondrial membrane potential (TMRM staining) in AC16 cells; assay type: cell-based, human
Experimental: To measure mitochondrial membrane potential, AC16 cells were stained with TMRM (62.5 nM, T668, Molecular Probes) for 30 minutes in the dark. TMRM stain was washed in warm PBS three times and imaged at 200× magnification using the Cy3 filter (510 nm excitation wavelength).

[7] = CLP + LGM2605 (6 hrs post-CLP), cardiomyocytes 12 hrs after surgery

SMILES: COc1cc(C[C@@H](CO[C@@H]2O[C@H](CO)[C@@H](O)[C@H](O)[C@H]2O)[C@H](CO[C@@H]2O[C@H](CO)[C@@H](O)[C@H](O)[C@H]2O)Cc2ccc(O)c(OC)c2)ccc1O [LGM2605, secoisolariciresinol diglucoside]
- adenylyl cyclase V/VI expression (AC/GAPDH ratio) [1]: restores cyclase V/VI expression pre-CLP levels
- protein kinase A (PKA) activity ([2]; SDG alone): increased protein kinase A (PKA) activity
- protein kinase A (PKA) activity ([2]; SDG in the presence of LPS): this stimulation was abolished in the presence of LPS
- protein kinase A (PKA) activity ([2]; SDG with isoproterenol): the increase was amplified by isoproterenol
- basal respiration and oxygen consumption rate associated with ATP synthesis [3, 7]: increased basal respiration levels (FIG. 18B) and oxygen consumption rate associated with ATP synthesis (FIG. 18C), compared to both CLP and sham mice
- maximal respiration and respiratory spare capacity [3, 7]: markedly elevated by LGM2605 treatment
- maximal respiration, ATP production, non-mitochondrial oxygen consumption ([3]; CLP + SDG relative to levels observed after CLP): statistically significant increase in maximal respiration, ATP production, and non-mitochondrial oxygen consumption relative to levels observed after CLP
- basal respiration, maximal respiration, ATP production, non-mitochondrial oxygen consumption ([3]; CLP + SDG relative to the untreated levels): statistically significant increase in basal respiration, maximal respiration, ATP production, and non-mitochondrial oxygen consumption relative to the untreated levels
- oxygen consumption rate (OCR) ([3]; CLP followed by SDG treatment vs CLP and sham, listed as SDG): more than compensated for that decrease; also recorded: increased oxygen consumption rate (OCR) compared to CLP alone and sham operated mice
- proton leakage ([3]; sham, CLP, CLP + SDG): no statistically significant changes in proton leakage were observed
- circulating levels of IL-1α, IL-1β, IL-6, TNFα and IL-10 [4]: did not reduce circulating levels
- mitochondrial calcium uptake [5]: increased mitochondrial Ca^2+ uptake rate and release of Ca^2+ following CCCP administration beyond that observed for sham operated mice
- mitochondrial calcium uptake ([5]; listed as SDG): mitochondrial calcium uptake was increased
- TMRM staining (mitochondrial membrane potential) ([6]; LGM2605 with 50 μM 2,4-DNP, with or without LPS): lost its beneficial effect in restoring TMRM staining
- TMRM staining (mitochondrial membrane potential) ([6]; LPS and LGM2605 12 hours): significantly restored TMRM staining toward baseline
